Results reported in US4618687A, “Cyclopentenone compound and process for production thereof” (Kyowa Hakko Kogyo Co., Ltd., priority 1984, dated 1986).
Converted amounts (≈) assume the structure as drawn.

Test system: HeLa S3 cells
Assay: Growth inhibitory effect on HeLa cells
Format: cell-based
Conditions: 96 h; for Cell count, average ± standard deviation: three runs, control 732 ± 24
Method: Growth inhibitory effect on HeLa cells
Cultured HeLa S3 cells are suspended in an MEM medium (containing 10% bovine fetus serum and 6 mg/100 ml kanamycin) at a concentration of 5×10^4 cells/ml, 1 ml each of the cell suspension is pipetted in 24-hole multi-dishes, and the cells are cultured in a carbon dioxide cultivator with 5% CO2 at 37° C. for 24 hours. Then, 0.1 ml each of drug solutions prepared at predetermined concentrations are added to each dish. Then, the cells are further cultured in the carbon dioxide cultivator for 96 hours. After the culturing, the culture liquor is removed from the dishes, and then 1 ml of PBS [physiological saline solution containing a phosphate buffer (pH 7.2)]is added to the dishes to gently wash the cell surfaces. Then, PBS is removed from the dishes. Then, 1 ml of PBS containing 0.05% trypsin and 0.02% EDTA is added to each dish. The dishes are left standing at room temperature for about 15 minutes. Adhered cells are peeled off, and 0.5 ml of the cell suspension is added to 10 ml of an isotonic solution. Cells are counted by a microcell counter to determine inhibition percent (%) against cell propagation of groups treated with the drug on the basis of the cell count of the control group. Linear expression showing a relationship between the concentration and the inhibition percent are obtained from the inhibition percent of the drug against the cell propagation at the respective concentration according to the least-squares method, and then the drug concentrations IC50 showing a 50% inhibition against the cell propagation are obtained from the linear expression.

With O=C1C=CC2COC(O)CC12 (stereo not drawn) [compound (I), 4-hydroxy-3-oxabicyclo [4.3.0]nona-8-en-7-on] as the compound, how does the “Cell count, average ± standard deviation” value (1 μg/ml) read?
The value was 697 ± 58 × 10^3 cells/ml.

And the “Cell count, average ± standard deviation” value (3 μg/ml)?
Its value is 784 ± 42 × 10^3 cells/ml.

And the “Cell count, average ± standard deviation” value (5 μg/ml)?
Its value is 454 ± 21 × 10^3 cells/ml.

And the “Cell count, average ± standard deviation” value (10 μg/ml)?
The value was 7.1 ± 2.1 × 10^3 cells/ml.

And the inhibition at 1 µg/mL (Homo sapiens, HeLa S3, 1 μg/ml, read-out: Inhibition percent against cell propagation)?
The inhibition at 1 µg/mL was 4.8%.

What about the inhibition at 3 µg/mL (Homo sapiens, HeLa S3, 3 μg/ml, read-out: Inhibition percent against cell propagation) of the same compound?
The inhibition at 3 µg/mL was -7%.

And the inhibition at 5 µg/mL (Homo sapiens, HeLa S3, 5 μg/ml, read-out: Inhibition percent against cell propagation)?
The inhibition at 5 µg/mL was 38%.

What about the inhibition at 10 µg/mL (Homo sapiens, HeLa S3, 10 μg/ml, read-out: Inhibition percent against cell propagation) of the same compound?
Its inhibition at 10 µg/mL is 99%.

What about the IC50 (Homo sapiens, HeLa S3, 50% inhibition against cell propagation, linear least-squares) of the same compound?
Its IC50 is 5.73 µg/mL (≈ 37.2 µM).
